These results are taken from BindingDB's records for doi:10.3109/14756360903169592 (Ufr Des Sciences Pharmaceutiques Et Ingenierie De La Sante, 2010).

This assay has as its target T1, Protein farnesyltransferase subunit beta/geranylgeranyltransferase type-1 subunit alpha (Saccharomyces cerevisiae (strain ATCC 204508 / S288c), UniProt P22007+P29703).
T1 sequence (P22007 whole entry): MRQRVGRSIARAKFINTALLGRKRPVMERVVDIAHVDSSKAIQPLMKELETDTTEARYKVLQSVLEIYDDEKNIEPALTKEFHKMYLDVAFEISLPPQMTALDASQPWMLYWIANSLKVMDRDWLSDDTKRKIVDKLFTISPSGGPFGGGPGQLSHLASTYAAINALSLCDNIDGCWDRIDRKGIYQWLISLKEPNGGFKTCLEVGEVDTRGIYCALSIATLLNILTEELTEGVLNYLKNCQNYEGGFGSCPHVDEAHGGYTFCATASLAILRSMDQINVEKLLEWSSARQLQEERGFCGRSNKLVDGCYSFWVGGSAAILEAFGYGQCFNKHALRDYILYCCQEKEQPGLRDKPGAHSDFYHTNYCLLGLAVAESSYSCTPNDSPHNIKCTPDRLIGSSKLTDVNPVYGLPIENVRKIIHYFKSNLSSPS
T1 sequence (P29703 whole entry): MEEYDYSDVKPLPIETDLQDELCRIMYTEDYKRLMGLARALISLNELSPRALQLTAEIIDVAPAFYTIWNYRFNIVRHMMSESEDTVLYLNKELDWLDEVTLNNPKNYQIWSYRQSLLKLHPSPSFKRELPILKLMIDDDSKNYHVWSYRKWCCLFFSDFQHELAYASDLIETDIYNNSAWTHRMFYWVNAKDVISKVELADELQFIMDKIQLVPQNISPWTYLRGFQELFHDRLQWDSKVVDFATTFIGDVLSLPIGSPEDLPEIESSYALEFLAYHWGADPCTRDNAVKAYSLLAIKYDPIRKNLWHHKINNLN
Briefly: Fluorescence-Based PFTase Inhibition Assay. To be noted: pH 7.5; 30 °C. As for the experimental part:
Assays were realized on 96-well plates, prepared with Biomek NKMC and Biomek 3000 from Beckman Coulter and read on a Wallac Victor fluorimeter from PerkinElmer. Per well, 20 μL of farnesyl pyrophosphate (10 μM) was added to 180 μL of a solution containing 2 μL of varied concentrations of tested compounds (dissolved in methanol) and 178 μL of a solution composed by 0.1 mL of partially purified recombinant yeast FTase (2.2mg/mL) and 7.0 mL of Dansyl-GCVLS peptide (in the following buffer: 5.8 mM DTT, 12 mM MgCl2, 12 μM ZnCl2, and 0.09% (w/v) CHAPS, 53 mM Tris/HCl, pH 7.5). Then the fluorescence development was recorded for 15 min (0.7 s per well, 20 repeats) at 30°C with an excitation filter at 340 nm and an emission filter at 486 nm.
In general, IC50 refers to the concentration that gives 50% inhibition. Read a high IC50 as a need for much substance. Turning to `CC(=O)CCC1=CC[C@@H]2C(C)C(=O)O[C@H]2C[C@@H]1C` (stereo partly specified) [11,13-Dihydroxanthinosin (13)], the 50% inhibitory concentration (IC50) was 240 µM.
As for `C=C1C(=O)O[C@H]2C[C@H](C)C(C(CC(C)=O)OC(C)=O)=CC[C@H]12` (stereo partly drawn) [α-Methylene-γ-lactone, 1], the midpoint of inhibition, the IC50, lay at 150 µM.
In the case of `CC(O)CCC1=CC[C@@H]2C(C)C(=O)O[C@H]2C[C@@H]1C` (stereo partly specified) [4,11,13-Tetrahydroxanthinosin (14)], the half-maximal inhibitory concentration (IC50) is over 1000 µM.
To `C=C1C(=O)O[C@H]2C[C@H](C)c3cc(C(C)=O)oc3C[C@H]12` [3,5-Oxyxanthatin (7)] belongs over 1000 µM; to `CC(=O)/C=C/[C@@]12O[C@@H]1C[C@H]1[C@H](C[C@@H]2C)OC(=O)[C@@H]1C` [11β,13-Dihydroxanthatin-1,5α-epoxide (11)], 90 µM; to `C=C1C(=O)O[C@H]2C[C@H](C)C(/C=C/C(C)=O)=CC[C@H]12` [Xanthatin (2)], 100 µM.
The same measure for `C=C1C(=O)O[C@@H]2C[C@H](C)C(/C=C/C(C)=O)=CC[C@H]12` [8-Epi-xanthatin]: 64 µM.
To `CC(O)/C=C/C1=CC[C@H]2[C@H](C[C@@H]1C)OC(=O)[C@@H]2C` (stereo partly drawn) [4,11β,13-Tetrahydroxanthatin (8)] belongs over 1000 µM.
The compound `C=C1C(=O)O[C@H]2C[C@H](C)C(C(CC(C)O)OC(C)=O)=CC[C@H]12` (stereo partly drawn) [α-Methylene-γ-lactone, 3] returned a half-maximal inhibitory concentration (IC50) of over 1000 µM.
Consider `CC(=O)OC(CC(C)O)C1=CC[C@H]2[C@H](C[C@@H]1C)OC(=O)[C@@H]2C` (stereo partly drawn) [11β,13-Dihydro-4-epi-isoxanthanol (16)], for which 633 µM corresponded to half-maximal inhibition (IC50).
Take `C/C=C(/C)C(=O)O[C@H]1[C@H]2[C@H](C)C(=O)O[C@@H]2C[C@@H](C)[C@@H]2C=CC(=O)[C@]21C` [6-O-angeloylprenolin]: the 50% inhibitory concentration (IC50) amounted to 18.8 µM.
To `C=C1C(=O)O[C@H]2C[C@H](C)[C@@]3(/C=C/C(C)=O)O[C@H]3C[C@H]12` [Xanthatin-1,5β-epoxide (4)] belongs 500 µM.
For the compound `CC(=O)OC(C)/C=C/C1=CC[C@H]2[C@H](C[C@@H]1C)OC(=O)[C@@H]2C` (stereo partly drawn) [2,3-(E)-Dehydro-4-epi-isoxanthanol (9)], the IC50 was 900 µM. This IC50 lies about 1.8-fold higher than the previous one.
The same measure for `CC(=O)/C=C/C1=CC[C@H]2[C@H](C[C@@H]1C)OC(=O)[C@@H]2C` [11β,13-Dihydroxanthatin (10)]: 210 µM; for `CC(=O)/C=C/[C@]12O[C@H]1C[C@H]1[C@H](C[C@@H]2C)OC(=O)[C@@H]1C` [11β,13-Dihydroxanthatin-1,5β-epoxide (12)]: 66 µM; for `C=C1C(=O)O[C@H]2C[C@H](C)[C@]3(/C=C/C(C)=O)O[C@@H]3C[C@H]12` [Xanthatin-1,5α-epoxide (5)]: 100 µM.
The same measure for `C=C1C(=O)O[C@@H]2C3C4(C=C[C@@]3(C)C3(C4)C(=O)O[C@@H]4[C@H]5C(C)=CC(=O)[C@H]5[C@@H](C)C[C@H](OC(=O)/C(C)=C\C)[C@H]43)[C@](C)(O)CC[C@@H]12` (stereo partly specified) [Arteminolide C']: 0.95 µM; for `C=C1C(=O)O[C@@H]2C[C@H](C)[C@]3(/C=C/C(C)=O)O[C@@H]3C[C@H]12` [8-Epi-xanthatin-1,5α-epoxide]: 58 µM.
`C/C=C(/C)C(=O)O[C@H]1C[C@H](C)[C@@H]2C(=O)C=C(C)[C@@H]2[C@H]2OC(=O)C3(CC45C=C[C@]3(C)C4[C@H]3OC(=O)C(C)[C@@H]3CC[C@@]5(C)O)[C@@H]21` (stereo partly specified) [Arteminolide C]: the half-maximal inhibitory concentration (IC50) turned out to be 1 µM. This IC50 lies about 58-fold lower than the previous one.
The same measure for `C=C1C(=O)O[C@H]2C[C@H](C)C(C(CC(C)OC(C)=O)OC(C)=O)=CC[C@H]12` (stereo partly drawn) [Acetyl-4-epi-isoxanthanol (6)]: 40 µM; for `CC(=O)OC(C)CC(OC(C)=O)C1=CC[C@H]2[C@H](C[C@@H]1C)OC(=O)[C@@H]2C` (stereo partly drawn) [Acetyl-11β,13-dihydro-4-epi-isoxanthanol (15)]: 40 µM.
